According to ChEMBL document CHEMBL1201862, “PubChem BioAssay data set” (2004):
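How tested: cells in 96-well plates exposed to compound for 48 hours at five concentrations. GI50 = concentration required for 50% inhibition of growth.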 Active and inactive are the calls of the source. Rule as the data show it: active = GI50 up to about 1.1 µM and inactive = higher.

Assays:
Assay in all cases: NCI anticancer screen, dose series, 48 h
CCRF-CEM = system: CCRF-CEM
SNB-75 = system: SNB-75
OVCAR-8 = system: OVCAR-8
SF-539 = system: SF-539
RXF 393 = system: RXF 393
UO-31 = system: UO-31
MOLT-4 = system: MOLT-4
TK-10 = system: TK-10
HCT-15 = system: HCT-15
Malme-3M = system: Malme-3M
HCC 2998 = system: HCC 2998
A498 = system: A498
HOP-92 = system: HOP-92
EKVX = system: EKVX
HT-29 = system: HT-29
LOX IMVI = system: LOX IMVI
UACC-257 = system: UACC-257

COc1ccc(C(=O)c2c(C(C(=O)c3ccc(OC)cc3)C(=O)c3ccc(OC)cc3)n(C(=O)c3ccc(OC)cc3)c3ccccc23)cc1
GI50 (CCRF-CEM): > 100 µM (inactive)
GI50 (SNB-75): > 100 µM (inactive)
GI50 (OVCAR-8): > 100 µM (inactive)
GI50 (SF-539): > 100 µM (inactive)
GI50 (RXF 393): > 100 µM (inactive)
GI50 (UO-31): > 100 µM (inactive)
GI50 (MOLT-4): > 100 µM (inactive)
GI50 (TK-10): > 100 µM (inactive)
GI50 (HCT-15): > 100 µM
GI50 (Malme-3M): > 100 µM (inactive)
GI50 (HCC 2998): > 100 µM (inactive)
GI50 (A498): > 100 µM (inactive)
GI50 (HOP-92): > 100 µM (inactive)
GI50 (EKVX): > 100 µM (inactive)
GI50 (HT-29): > 100 µM (inactive)
GI50 (LOX IMVI): > 100 µM (inactive)

CCCCOC(=O)NC(=O)c1cn(CCCOC(=O)CCCCCCCCC(=O)OCCCn2cc(C(=O)NC(=O)OCCCC)c(=O)n(C)c2=O)c(=O)n(C)c1=O
GI50 (CCRF-CEM): > 100 µM (inactive)
GI50 (SNB-75): 58.1 µM (inactive)
GI50 (OVCAR-8): > 100 µM (inactive)
GI50 (SF-539): > 100 µM (inactive)
GI50 (RXF 393): > 100 µM (inactive)
GI50 (UO-31): > 100 µM (inactive)
GI50 (MOLT-4): > 100 µM (inactive)
GI50 (TK-10): > 100 µM (inactive)
GI50 (HCT-15): > 100 µM
GI50 (Malme-3M): > 100 µM (inactive)
GI50 (HCC 2998): > 100 µM (inactive)
GI50 (A498): > 100 µM (inactive)
GI50 (HOP-92): > 100 µM (inactive)
GI50 (UACC-257): > 100 µM (inactive)
GI50 (EKVX): > 100 µM (inactive)
GI50 (HT-29): > 100 µM (inactive)

Cc1cc(NS(=O)(=O)c2ccc(NC(=O)c3cccn4c(=O)c5ccccc5nc34)cc2)no1
GI50 (CCRF-CEM): > 100 µM (inactive)
GI50 (SNB-75): > 100 µM (inactive)
GI50 (OVCAR-8): > 100 µM (inactive)
GI50 (SF-539): > 100 µM (inactive)
GI50 (RXF 393): > 100 µM (inactive)
GI50 (UO-31): > 100 µM (inactive)
GI50 (MOLT-4): > 100 µM (inactive)
GI50 (TK-10): > 100 µM (inactive)
GI50 (Malme-3M): > 100 µM (inactive)
GI50 (HCC 2998): > 100 µM (inactive)
GI50 (A498): > 100 µM (inactive)
GI50 (HOP-92): > 100 µM (inactive)
GI50 (UACC-257): > 100 µM (inactive)
GI50 (EKVX): > 100 µM (inactive)
GI50 (HT-29): > 100 µM (inactive)
GI50 (LOX IMVI): > 100 µM (inactive)

COc1cc(O)c(C(=O)C2Cc3ccccc32)c(OC)c1 (stereo not drawn)
GI50 (CCRF-CEM): 19.8 µM (inactive)
GI50 (SNB-75): 37.7 µM (inactive)
GI50 (OVCAR-8): 48.3 µM (inactive)
GI50 (SF-539): > 100 µM (inactive)
GI50 (RXF 393): 20.3 µM (inactive)
GI50 (UO-31): 33.5 µM (inactive)
GI50 (MOLT-4): 16.9 µM (inactive)
GI50 (TK-10): > 100 µM (inactive)
GI50 (HCT-15): 32.9 µM
GI50 (Malme-3M): 35.8 µM (inactive)
GI50 (HCC 2998): 49.1 µM (inactive)
GI50 (A498): 30 µM (inactive)
GI50 (HOP-92): 35.9 µM (inactive)
GI50 (UACC-257): 47.3 µM (inactive)
GI50 (HT-29): 35.3 µM (inactive)
GI50 (LOX IMVI): 51.4 µM (inactive)

CCOC(=O)C(C)Sc1nnc(COc2ccccc2OC)n1-c1ccccc1 (stereo not drawn)
GI50 (CCRF-CEM): 53.7 µM (inactive)
GI50 (SNB-75): > 100 µM (inactive)
GI50 (OVCAR-8): > 100 µM (inactive)
GI50 (SF-539): > 100 µM (inactive)
GI50 (RXF 393): 52.4 µM (inactive)
GI50 (UO-31): > 100 µM (inactive)
GI50 (TK-10): > 100 µM (inactive)
GI50 (HCT-15): 16.9 µM
GI50 (Malme-3M): > 100 µM (inactive)
GI50 (HCC 2998): 29.1 µM (inactive)
GI50 (A498): 0.268 µM (active)
GI50 (HOP-92): 49.1 µM (inactive)
GI50 (UACC-257): > 100 µM (inactive)
GI50 (EKVX): > 100 µM (inactive)
GI50 (HT-29): 75.5 µM (inactive)
GI50 (LOX IMVI): 15.7 µM (inactive)

O=C1OC(CC(=O)c2ccc(Cl)c(Cl)c2)C(Cl)=C1Cl (stereo not drawn)
GI50 (CCRF-CEM): 20.8 µM (inactive)
GI50 (SNB-75): > 100 µM (inactive)
GI50 (OVCAR-8): > 100 µM (inactive)
GI50 (SF-539): 74.5 µM (inactive)
GI50 (RXF 393): > 100 µM (inactive)
GI50 (UO-31): > 100 µM (inactive)
GI50 (MOLT-4): 38.7 µM (inactive)
GI50 (TK-10): > 100 µM (inactive)
GI50 (HCT-15): > 100 µM
GI50 (Malme-3M): > 100 µM (inactive)
GI50 (HCC 2998): > 100 µM (inactive)
GI50 (A498): 31.2 µM (inactive)
GI50 (UACC-257): > 100 µM (inactive)
GI50 (EKVX): > 100 µM (inactive)
GI50 (HT-29): > 100 µM (inactive)
GI50 (LOX IMVI): > 100 µM (inactive)

O=c1[nH]c(=O)n(C2OC(CO)C(O)C2O)cc1/N=N/NCc1ccccc1 (stereo not drawn)
GI50 (CCRF-CEM): > 69.5 µM (inactive)
GI50 (SNB-75): > 100 µM (inactive)
GI50 (OVCAR-8): > 100 µM (inactive)
GI50 (SF-539): > 100 µM (inactive)
GI50 (RXF 393): > 79.4 µM (inactive)
GI50 (UO-31): > 100 µM (inactive)
GI50 (MOLT-4): > 100 µM (inactive)
GI50 (TK-10): > 100 µM (inactive)
GI50 (HCT-15): > 65 µM
GI50 (Malme-3M): > 100 µM (inactive)
GI50 (HCC 2998): > 100 µM (inactive)
GI50 (A498): > 100 µM (inactive)
GI50 (HOP-92): > 100 µM (inactive)
GI50 (UACC-257): > 100 µM (inactive)
GI50 (EKVX): > 100 µM (inactive)
GI50 (HT-29): > 100 µM (inactive)
GI50 (LOX IMVI): > 63.8 µM (inactive)

CCCNC(=O)c1cc2ccccc2cc1C(=O)OC
GI50 (CCRF-CEM): > 100 µM (inactive)
GI50 (SNB-75): 19.3 µM (inactive)
GI50 (OVCAR-8): > 100 µM (inactive)
GI50 (SF-539): > 100 µM (inactive)
GI50 (UO-31): 58.5 µM (inactive)
GI50 (MOLT-4): > 100 µM (inactive)
GI50 (TK-10): > 100 µM (inactive)
GI50 (HCT-15): > 100 µM
GI50 (Malme-3M): > 100 µM (inactive)
GI50 (HCC 2998): > 100 µM (inactive)
GI50 (A498): > 100 µM (inactive)
GI50 (HOP-92): 59.2 µM (inactive)
GI50 (UACC-257): > 100 µM (inactive)
GI50 (EKVX): > 100 µM (inactive)
GI50 (HT-29): > 100 µM (inactive)

CCN(CC)C1CC(O[C@H]2C[C@](O)(C(=O)CO)Cc3c(O)c4c(c(O)c32)C(=O)c2c(OC)cccc2C4=O)OC(C)C1O (stereo partly drawn)
GI50 (CCRF-CEM): 0.122 µM (active)
GI50 (SNB-75): 0.028 µM (active)
GI50 (OVCAR-8): < 0.0262 µM (active)
GI50 (SF-539): 0.0461 µM (active)
GI50 (RXF 393): 0.0446 µM (active)
GI50 (UO-31): 0.0604 µM (active)
GI50 (MOLT-4): 0.0225 µM (active)
GI50 (TK-10): 0.0881 µM (active)
GI50 (HCT-15): 0.245 µM
GI50 (Malme-3M): 0.0653 µM (active)
GI50 (HCC 2998): 0.0948 µM (active)
GI50 (A498): 0.0236 µM (active)
GI50 (HOP-92): 0.0522 µM (active)
GI50 (UACC-257): 0.0951 µM (active)
GI50 (EKVX): 0.082 µM (active)
GI50 (HT-29): < 0.0252 µM (active)
GI50 (LOX IMVI): < 0.0259 µM (active)

CN(C)CCN1CCc2c([nH]c3ccccc23)C1c1cccnc1 (stereo not drawn)
GI50 (CCRF-CEM): > 100 µM (inactive)
GI50 (SNB-75): 61.1 µM (inactive)
GI50 (OVCAR-8): > 100 µM (inactive)
GI50 (SF-539): > 100 µM (inactive)
GI50 (RXF 393): 20.2 µM (inactive)
GI50 (UO-31): 40.9 µM (inactive)
GI50 (MOLT-4): > 100 µM (inactive)
GI50 (TK-10): > 100 µM (inactive)
GI50 (HCT-15): > 100 µM
GI50 (HCC 2998): > 100 µM (inactive)
GI50 (A498): > 100 µM (inactive)
GI50 (HOP-92): 63.7 µM (inactive)
GI50 (UACC-257): > 100 µM (inactive)
GI50 (EKVX): > 100 µM (inactive)
GI50 (HT-29): > 100 µM (inactive)

CCN(CC)CCOC(c1ccccc1)c1ccccc1.CCOC(=O)Nc1ccc(S(=O)(=O)OC)cc1.CCOC(=O)Nc1ccc(S(=O)(=O)OC)cc1.Nc1ccc(C(=O)O)c(O)c1
GI50 (CCRF-CEM): > 100 µM (inactive)
GI50 (SNB-75): > 100 µM (inactive)
GI50 (OVCAR-8): > 100 µM (inactive)
GI50 (SF-539): > 100 µM (inactive)
GI50 (RXF 393): > 100 µM (inactive)
GI50 (UO-31): > 100 µM (inactive)
GI50 (MOLT-4): > 100 µM (inactive)
GI50 (TK-10): > 100 µM (inactive)
GI50 (HCT-15): > 100 µM
GI50 (Malme-3M): > 100 µM (inactive)
GI50 (HCC 2998): > 100 µM (inactive)
GI50 (A498): > 100 µM (inactive)
GI50 (HOP-92): > 100 µM (inactive)
GI50 (UACC-257): > 100 µM (inactive)
GI50 (EKVX): > 100 µM (inactive)
GI50 (HT-29): > 100 µM (inactive)
GI50 (LOX IMVI): > 100 µM (inactive)

CC1CCC2[C@@H](C)COC3O[C@]4(C)CCC1C32OO4 (stereo partly drawn)
GI50 (CCRF-CEM): 5.15 µM (inactive)
GI50 (SNB-75): 91.6 µM (inactive)
GI50 (OVCAR-8): > 100 µM (inactive)
GI50 (SF-539): > 100 µM (inactive)
GI50 (RXF 393): > 100 µM (inactive)
GI50 (UO-31): 54.1 µM (inactive)
GI50 (TK-10): > 100 µM (inactive)
GI50 (HCT-15): > 100 µM
GI50 (Malme-3M): > 100 µM (inactive)
GI50 (HCC 2998): > 100 µM (inactive)
GI50 (A498): > 100 µM (inactive)
GI50 (HOP-92): > 100 µM (inactive)
GI50 (UACC-257): > 100 µM (inactive)
GI50 (EKVX): > 100 µM (inactive)
GI50 (HT-29): > 100 µM (inactive)
GI50 (LOX IMVI): > 100 µM (inactive)
